In ChEMBL document CHEMBL5291721, “A preclinical secondary pharmacology resource illuminates target-adverse drug reaction associations of marketed drugs” (Nat Commun, 2023):
Where a SMILES comes first, the peptide text is derived from it. [ ]: non-standard residue; d: D form. pGlu = O=C1CC[C@@H](C(=O)O)N1; Thz = O=C(O)[C@@H]1CSCN1

How the values were obtained:
[1] = biological target: T1, Amine oxidase [flavin-containing] A (Homo sapiens, UniProt P21397); type: functional
T1 sequence (P21397 whole entry): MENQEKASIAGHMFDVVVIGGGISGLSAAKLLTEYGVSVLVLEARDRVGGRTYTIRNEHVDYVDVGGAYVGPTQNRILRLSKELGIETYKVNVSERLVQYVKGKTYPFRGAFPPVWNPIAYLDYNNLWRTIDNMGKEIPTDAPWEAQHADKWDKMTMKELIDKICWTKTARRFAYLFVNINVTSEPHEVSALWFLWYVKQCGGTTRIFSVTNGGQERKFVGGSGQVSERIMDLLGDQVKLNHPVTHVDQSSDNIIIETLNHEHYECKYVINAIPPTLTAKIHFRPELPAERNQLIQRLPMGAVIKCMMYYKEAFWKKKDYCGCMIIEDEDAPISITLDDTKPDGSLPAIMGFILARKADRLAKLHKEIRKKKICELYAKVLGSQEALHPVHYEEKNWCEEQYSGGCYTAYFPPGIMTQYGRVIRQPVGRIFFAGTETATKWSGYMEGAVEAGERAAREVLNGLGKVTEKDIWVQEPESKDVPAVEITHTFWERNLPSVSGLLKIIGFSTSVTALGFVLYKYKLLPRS

Adenosine receptor A3 = biological target: T2, Adenosine receptor A3 (Homo sapiens, UniProt P0DMS8)
T2 sequence (P0DMS8 whole entry): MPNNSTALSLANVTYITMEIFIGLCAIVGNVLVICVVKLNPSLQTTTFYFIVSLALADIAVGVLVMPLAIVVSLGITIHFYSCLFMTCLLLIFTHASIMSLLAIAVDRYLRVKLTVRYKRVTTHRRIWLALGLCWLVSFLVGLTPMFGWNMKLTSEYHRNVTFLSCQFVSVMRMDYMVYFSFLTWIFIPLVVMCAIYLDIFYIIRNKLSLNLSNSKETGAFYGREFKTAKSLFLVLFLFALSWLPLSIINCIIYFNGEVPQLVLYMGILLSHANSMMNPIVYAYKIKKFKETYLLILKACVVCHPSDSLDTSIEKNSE

[2] = biological target: T3, Gastrin/cholecystokinin type B receptor (Homo sapiens, UniProt P32239)
T3 sequence (P32239 whole entry): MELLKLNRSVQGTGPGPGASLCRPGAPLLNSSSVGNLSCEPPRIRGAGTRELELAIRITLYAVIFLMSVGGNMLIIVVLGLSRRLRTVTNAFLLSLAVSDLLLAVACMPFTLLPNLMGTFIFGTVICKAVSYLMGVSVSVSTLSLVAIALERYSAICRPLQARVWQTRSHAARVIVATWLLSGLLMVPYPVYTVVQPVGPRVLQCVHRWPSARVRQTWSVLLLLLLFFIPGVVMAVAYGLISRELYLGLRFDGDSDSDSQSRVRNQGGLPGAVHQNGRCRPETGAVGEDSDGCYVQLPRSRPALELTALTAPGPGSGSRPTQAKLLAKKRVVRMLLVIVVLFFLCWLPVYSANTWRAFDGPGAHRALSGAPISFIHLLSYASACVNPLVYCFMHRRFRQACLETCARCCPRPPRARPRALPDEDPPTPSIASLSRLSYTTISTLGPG

[3] = biological target: Kappa-type opioid receptor (Homo sapiens, UniProt P41145)
[4] = biological target: T4, Alpha-2A adrenergic receptor (Homo sapiens, UniProt P08913); type: functional, cell-based
T4 sequence (P08913 whole entry): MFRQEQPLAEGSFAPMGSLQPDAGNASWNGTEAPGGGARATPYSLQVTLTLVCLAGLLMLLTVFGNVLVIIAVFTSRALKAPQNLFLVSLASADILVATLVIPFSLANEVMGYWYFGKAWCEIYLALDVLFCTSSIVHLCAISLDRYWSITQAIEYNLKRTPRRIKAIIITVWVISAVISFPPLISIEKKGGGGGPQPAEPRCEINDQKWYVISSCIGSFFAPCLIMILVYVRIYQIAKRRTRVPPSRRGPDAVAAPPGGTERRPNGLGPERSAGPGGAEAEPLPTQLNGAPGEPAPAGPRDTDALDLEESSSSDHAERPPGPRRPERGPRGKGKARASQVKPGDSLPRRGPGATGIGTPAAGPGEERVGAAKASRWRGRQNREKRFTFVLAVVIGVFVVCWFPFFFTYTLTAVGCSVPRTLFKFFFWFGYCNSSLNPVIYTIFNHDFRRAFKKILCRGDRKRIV

[5] = biological target: Voltage-gated inwardly rectifying potassium channel KCNH2 (Homo sapiens, UniProt Q12809); type: functional
Vasopressin V1a receptor = Vasopressin V1a receptor (Homo sapiens, UniProt P37288)
Progesterone receptor = biological target: T5, Progesterone receptor (Homo sapiens, UniProt P06401); type: functional
T5 sequence (P06401 whole entry): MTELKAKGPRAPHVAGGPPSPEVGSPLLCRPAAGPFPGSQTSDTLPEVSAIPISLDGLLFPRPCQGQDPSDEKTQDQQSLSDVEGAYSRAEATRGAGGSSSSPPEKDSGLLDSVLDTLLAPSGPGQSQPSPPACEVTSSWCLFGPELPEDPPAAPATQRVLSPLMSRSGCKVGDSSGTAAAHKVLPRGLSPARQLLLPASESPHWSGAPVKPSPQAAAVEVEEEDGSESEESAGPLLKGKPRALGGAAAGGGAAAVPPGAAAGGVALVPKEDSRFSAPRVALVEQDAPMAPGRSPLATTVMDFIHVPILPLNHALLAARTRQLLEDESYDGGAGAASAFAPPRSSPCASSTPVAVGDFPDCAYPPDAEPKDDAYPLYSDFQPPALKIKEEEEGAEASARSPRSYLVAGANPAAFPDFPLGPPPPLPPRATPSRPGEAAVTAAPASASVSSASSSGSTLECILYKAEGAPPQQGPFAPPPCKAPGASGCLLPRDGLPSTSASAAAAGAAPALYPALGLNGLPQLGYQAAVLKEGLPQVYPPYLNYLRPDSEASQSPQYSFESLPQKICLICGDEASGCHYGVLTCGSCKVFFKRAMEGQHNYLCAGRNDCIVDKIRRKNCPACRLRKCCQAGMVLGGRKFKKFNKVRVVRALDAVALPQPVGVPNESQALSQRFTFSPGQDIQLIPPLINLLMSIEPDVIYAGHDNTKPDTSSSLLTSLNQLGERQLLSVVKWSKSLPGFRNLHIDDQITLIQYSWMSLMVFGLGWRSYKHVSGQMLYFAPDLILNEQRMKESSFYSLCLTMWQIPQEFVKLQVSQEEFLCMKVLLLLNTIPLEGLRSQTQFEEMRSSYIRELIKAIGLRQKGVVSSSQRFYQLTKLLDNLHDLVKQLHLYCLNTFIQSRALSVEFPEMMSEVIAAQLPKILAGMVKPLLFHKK

[6] = biological target: Delta-type opioid receptor (Homo sapiens, UniProt P41143)
[7] = biological target: Sodium-dependent dopamine transporter (Homo sapiens, UniProt Q01959)
Further: assay procedure not described here.

Chain of Vasopressin V1a receptor (P37288 whole entry): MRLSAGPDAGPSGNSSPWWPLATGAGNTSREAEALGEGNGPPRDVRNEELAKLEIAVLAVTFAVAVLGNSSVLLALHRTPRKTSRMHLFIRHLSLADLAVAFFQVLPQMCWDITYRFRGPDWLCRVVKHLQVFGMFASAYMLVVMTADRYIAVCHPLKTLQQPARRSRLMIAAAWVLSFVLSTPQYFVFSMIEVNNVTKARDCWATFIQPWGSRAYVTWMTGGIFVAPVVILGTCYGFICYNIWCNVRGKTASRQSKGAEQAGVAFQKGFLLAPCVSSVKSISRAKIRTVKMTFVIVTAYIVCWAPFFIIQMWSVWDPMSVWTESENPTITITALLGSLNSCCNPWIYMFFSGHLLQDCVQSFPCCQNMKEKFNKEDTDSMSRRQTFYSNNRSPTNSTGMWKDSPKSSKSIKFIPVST
Chain of Sodium-dependent dopamine transporter (Q01959 whole entry): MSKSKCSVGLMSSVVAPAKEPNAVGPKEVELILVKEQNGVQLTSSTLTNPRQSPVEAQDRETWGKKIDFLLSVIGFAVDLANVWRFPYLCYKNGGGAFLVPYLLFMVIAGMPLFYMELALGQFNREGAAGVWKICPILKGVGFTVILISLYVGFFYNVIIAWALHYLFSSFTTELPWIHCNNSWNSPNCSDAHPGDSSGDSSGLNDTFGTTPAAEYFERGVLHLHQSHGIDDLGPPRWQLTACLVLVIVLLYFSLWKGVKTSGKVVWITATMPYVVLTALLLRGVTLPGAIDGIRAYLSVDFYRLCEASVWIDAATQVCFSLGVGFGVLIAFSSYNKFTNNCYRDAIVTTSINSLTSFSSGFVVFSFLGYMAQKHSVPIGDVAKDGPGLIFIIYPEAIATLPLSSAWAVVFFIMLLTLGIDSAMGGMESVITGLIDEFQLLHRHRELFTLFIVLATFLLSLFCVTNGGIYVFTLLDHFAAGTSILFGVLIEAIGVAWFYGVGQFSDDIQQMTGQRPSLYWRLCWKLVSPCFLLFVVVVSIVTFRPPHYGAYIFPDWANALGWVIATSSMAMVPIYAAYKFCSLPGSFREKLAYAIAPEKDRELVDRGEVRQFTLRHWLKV
Chain of Voltage-gated inwardly rectifying potassium channel KCNH2 (Q12809 whole entry): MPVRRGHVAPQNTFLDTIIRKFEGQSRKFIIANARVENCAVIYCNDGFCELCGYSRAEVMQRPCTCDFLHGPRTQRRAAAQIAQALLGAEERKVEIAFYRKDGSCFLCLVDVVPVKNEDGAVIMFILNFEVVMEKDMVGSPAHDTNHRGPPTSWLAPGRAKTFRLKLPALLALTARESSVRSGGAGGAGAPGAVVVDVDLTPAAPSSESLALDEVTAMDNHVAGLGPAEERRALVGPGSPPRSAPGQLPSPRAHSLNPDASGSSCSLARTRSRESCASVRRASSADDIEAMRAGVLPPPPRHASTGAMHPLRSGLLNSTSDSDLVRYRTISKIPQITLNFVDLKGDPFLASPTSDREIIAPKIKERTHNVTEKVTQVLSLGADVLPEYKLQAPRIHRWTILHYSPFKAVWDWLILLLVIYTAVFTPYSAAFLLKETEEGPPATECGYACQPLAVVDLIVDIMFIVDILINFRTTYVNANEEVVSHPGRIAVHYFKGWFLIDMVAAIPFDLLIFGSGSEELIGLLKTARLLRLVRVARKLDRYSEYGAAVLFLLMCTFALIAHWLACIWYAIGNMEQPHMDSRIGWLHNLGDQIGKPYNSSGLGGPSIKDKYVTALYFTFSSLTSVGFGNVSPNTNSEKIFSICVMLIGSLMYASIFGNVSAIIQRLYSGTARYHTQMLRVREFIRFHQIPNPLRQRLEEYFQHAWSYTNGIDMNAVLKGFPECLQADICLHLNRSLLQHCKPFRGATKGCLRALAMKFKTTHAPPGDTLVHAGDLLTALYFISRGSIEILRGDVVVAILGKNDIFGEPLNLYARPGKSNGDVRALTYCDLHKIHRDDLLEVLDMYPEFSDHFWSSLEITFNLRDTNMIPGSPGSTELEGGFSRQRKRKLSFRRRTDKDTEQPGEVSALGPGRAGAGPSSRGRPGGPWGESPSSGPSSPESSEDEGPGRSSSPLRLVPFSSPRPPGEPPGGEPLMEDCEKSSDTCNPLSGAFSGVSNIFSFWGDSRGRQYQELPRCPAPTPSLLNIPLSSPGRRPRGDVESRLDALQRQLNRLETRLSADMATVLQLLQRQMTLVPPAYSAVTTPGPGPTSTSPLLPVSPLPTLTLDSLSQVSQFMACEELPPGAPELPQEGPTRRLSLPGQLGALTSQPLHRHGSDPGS
Chain of Delta-type opioid receptor (P41143 whole entry): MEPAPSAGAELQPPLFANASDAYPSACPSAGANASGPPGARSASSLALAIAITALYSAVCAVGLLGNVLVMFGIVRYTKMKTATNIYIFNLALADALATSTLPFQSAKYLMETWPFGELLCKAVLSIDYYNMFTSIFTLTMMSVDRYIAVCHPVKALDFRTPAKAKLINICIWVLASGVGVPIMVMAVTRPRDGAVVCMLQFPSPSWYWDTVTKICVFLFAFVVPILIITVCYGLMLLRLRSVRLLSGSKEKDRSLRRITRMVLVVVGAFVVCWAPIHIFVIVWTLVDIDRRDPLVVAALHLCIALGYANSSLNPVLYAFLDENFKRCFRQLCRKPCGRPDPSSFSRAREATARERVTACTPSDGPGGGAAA
Chain of Kappa-type opioid receptor (P41145 whole entry): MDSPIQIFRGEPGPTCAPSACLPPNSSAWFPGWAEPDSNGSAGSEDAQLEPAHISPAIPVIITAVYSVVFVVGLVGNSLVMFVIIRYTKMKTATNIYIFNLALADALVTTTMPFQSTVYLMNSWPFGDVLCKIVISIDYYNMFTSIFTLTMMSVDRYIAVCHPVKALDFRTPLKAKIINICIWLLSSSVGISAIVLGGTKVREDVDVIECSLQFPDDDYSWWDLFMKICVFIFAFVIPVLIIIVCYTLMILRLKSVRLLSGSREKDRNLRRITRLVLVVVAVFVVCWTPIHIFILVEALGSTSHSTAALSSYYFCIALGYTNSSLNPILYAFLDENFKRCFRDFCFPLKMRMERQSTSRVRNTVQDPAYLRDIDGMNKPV

AC50 [1] [µM] | AC50 (Adenosine receptor A3) [µM] | AC50 [2] [µM] | AC50 [3] [µM] | AC50 [4] [µM] | AC50 (Vasopressin V1a receptor) [µM] | AC50 (Progesterone receptor) [µM] | AC50 [6] [µM] | AC50 [7] [µM] | SMILES | AC50 [5] [µM]
> 30 | > 30 | > 30 | > 30 | > 30 | > 30 | > 30 | > 30 | > 30 | OC[C@H]1O[C@@H](Oc2cc(O)cc(/C=C/c3ccc(O)cc3)c2)[C@H](O)[C@@H](O)[C@@H]1O [PICEID] | > 30
> 30 | > 30 | > 30 | > 30 | > 30 | > 30 | > 30 | > 30 | > 30 | O=C1CC[C@@H](C(=O)N2CSC[C@H]2C(=O)O)N1 [PIDOTIMOD] ([pGlu]-[Thz]-OH) | > 30
> 30 | > 30 | > 30 | > 30 | > 30 | > 30 | > 30 | > 30 | > 30 | COc1cc(C(=O)OCc2cccc(COC(=O)c3cc(OC)c(OC)c(OC)c3)n2)cc(OC)c1OC [PIROZADIL] | > 30
> 30 | > 30 | > 30 | > 30 | > 30 | > 30 | > 30 | > 30 | > 30 | CCC(NC(C)C)C(O)c1ccc(O)c2[nH]c(=O)ccc12 (stereo not given) [PROCATEROL] | > 30
> 30 | > 30 | > 30 | > 30 | > 30 | > 30 | > 30 | > 30 | > 30 | C=CC[N+]1([C@H]2C[C@H]3[C@@H]4CC[C@H]5C[C@H](O)[C@@H](N6CCOCC6)C[C@]5(C)[C@H]4CC[C@]3(C)[C@H]2OC(C)=O)CCCC1 [ROCURONIUM] | 1.06
> 30 | > 30 | > 30 | > 30 | > 30 | > 30 | > 30 | > 30 | > 30 | CCCN1CCCC[C@H]1C(=O)Nc1c(C)cccc1C [ROPIVACAINE] | > 30
> 30 | > 30 | > 30 | > 30 | > 30 | > 30 | > 30 | > 30 | > 30 | CCN1CCCC1CNC(=O)c1cc(S(=O)(=O)CC)ccc1OC (stereo not given) [SULTOPRIDE] | 3.5
> 30 | 3.1 | > 30 | > 30 | > 30 | > 30 | > 30 | > 30 | 18 | CCOC(=O)[C@@H](N)Cc1ccc(-c2cc(O[C@H](c3ccc(Cl)cc3-n3ccc(C)n3)C(F)(F)F)nc(N)n2)cc1 [TELOTRISTAT ETHYL] | 26
> 30 | > 30 | > 30 | > 30 | > 30 | > 30 | > 30 | > 30 | > 30 | Cn1c(=O)c2c(ncn2CCOC(=O)C(C)(C)Oc2ccc(Cl)cc2)n(C)c1=O [THEOFIBRATE] | > 30
> 30 | > 30 | > 30 | 24 | > 30 | > 30 | > 30 | > 30 | > 30 | CC(C(=O)O)c1ccc2c(c1)CC(=O)c1ccccc1S2 (stereo not given) [ZALTOPROFEN] | > 30

SMILES | AC50 [1] [µM] | AC50 (Adenosine receptor A3) [µM] | AC50 [2] [µM] | AC50 [3] [µM] | AC50 [4] [µM] | AC50 (Vasopressin V1a receptor) [µM] | AC50 (Progesterone receptor) [µM] | AC50 [6] [µM] | AC50 [7] [µM] | AC50 [5] [µM]
CC(C)(C)NCC(O)c1ccccc1Cl (stereo not given) [TULOBUTEROL] | > 30 | > 30 | > 30 | > 30 | > 30 | > 30 | > 30 | > 30 | > 30 | > 30
